Laboratory results taken from PubChem BioAssay AID248 (DTP/NCI, 2004).
Values joined by “and” are separate entries in the source; they are usually repeats but may differ in a detail not shown here. Equal values may be shown once. Inconclusive results and toxic doses are left out. Cut-off read from the data, not from the text of the source: active = T/C of 150% or more; inactive = T/C below 125%. Square brackets hold non-standard residues; d marks the D form. Peptide text beside a SMILES is read from it. * marks the point of attachment. ξ: configuration not given here. Cbz = O=C(OCc1ccccc1)*; OBn = c1ccc(CO*)cc1; ξS = NC(CO)C(=O)O

Test system: L1210 leukemia ip in BDF1 mice, survival T/C
Test: NCI In Vivo Anticancer Drug Screen. Data for tumor model L1210 Leukemia (intraperitoneal) in B6D2F1 (BDF1) mice
Settings: endpoint: mean survival time, higher = longer survival
Summary of the method: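 Survival endpoint. Drug-treated group vs vehicle group, expressed as T divided by C. Tumor passaged by transplantation.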

[1] = dose: 100.0 mg/kg/injection, schedule: Q01DX009 (ip), vehicle: Klucel (hydroxypropylcellulose) (HPC)
[2] = dose: 100.0 mg/kg/injection, schedule: Q04DX003 (ip), vehicle: Klucel (hydroxypropylcellulose) (HPC)
[3] = dose: 200.0 mg/kg/injection, schedule: Q01DX009 (ip), vehicle: Klucel (hydroxypropylcellulose) (HPC)
[4] = dose: 200.0 mg/kg/injection, schedule: Q04DX003 (ip), vehicle: Klucel (hydroxypropylcellulose) (HPC)
[5] = dose: 400.0 mg/kg/injection, schedule: Q01DX009 (ip), vehicle: Klucel (hydroxypropylcellulose) (HPC)
[6] = dose: 400.0 mg/kg/injection, schedule: Q04DX003 (ip), vehicle: Klucel (hydroxypropylcellulose) (HPC)
[7] = dose: 25.0 mg/kg/injection, schedule: Q04DX002 (ip), vehicle: saline
[8] = dose: 50.0 mg/kg/injection, schedule: Q04DX002 (ip), vehicle: saline
[9] = dose: 100.0 mg/kg/injection, schedule: Q04DX002 (ip), vehicle: Klucel (hydroxypropylcellulose) (HPC)
[10] = dose: 200.0 mg/kg/injection, schedule: Q01DX001 (ip), vehicle: carboxymethylcellulose (CMC)
[11] = dose: 25.0 mg/kg/injection, schedule: Q04DX003 (ip), vehicle: saline
[12] = dose: 50.0 mg/kg/injection, schedule: Q04DX003 (ip), vehicle: saline
[13] = dose: 100.0 mg/kg/injection, schedule: Q04DX003 (ip), vehicle: saline
[14] = dose: 100.0 mg/kg/injection, schedule: Q01DX001 (ip), vehicle: other
[15] = dose: 200.0 mg/kg/injection, schedule: Q01DX001 (ip), vehicle: other
[16] = dose: 400.0 mg/kg/injection, schedule: Q01DX001 (ip), vehicle: other

Measured: T/C

O=C1N(O)C2(CCCC(O)C2O)C(=O)C12CCCCC2 (stereo not given)
inactive: dose: 75.0 mg/kg/injection, schedule: Q01DX001 (ip), vehicle: saline 103 % of control | dose: 150.0 mg/kg/injection, schedule: Q01DX001 (ip), vehicle: saline 96 % of control | dose: 300.0 mg/kg/injection, schedule: Q01DX001 (ip), vehicle: saline 96 % of control

COc1ccc2c(=O)c3c(O)cc(OC)cc3oc2c1
inactive: dose: 100.0 mg/kg/injection, schedule: Q01DX001 (ip), vehicle: saline 97 % of control | dose: 200.0 mg/kg/injection, schedule: Q01DX001 (ip), vehicle: saline 101 % of control | dose: 400.0 mg/kg/injection, schedule: Q01DX001 (ip), vehicle: saline 87 % of control and 90 % of control

Cc1cc(C)c(S(=O)(=O)c2c(C)cc(C)c([N+](=O)[O-])c2C)c(C)c1[N+](=O)[O-]
inactive: [1] 98 % of control | [2] 92 % of control | [3] 88 % of control | [4] 93 % of control | [5] 88 % of control | [6] 90 % of control

CC(=O)N(C)c1ccc(NC(=O)Nc2c(C)cccc2C)cc1
inactive: [7] 94 % of control | dose: 50.0 mg/kg/injection, schedule: Q01DX009 (ip), vehicle: Klucel (hydroxypropylcellulose) (HPC) 96 % of control | [8] 93 % of control | [1] 98 % of control | dose: 100.0 mg/kg/injection, schedule: Q04DX002 (ip), vehicle: saline 96 % of control | [3] 102 % of control | dose: 200.0 mg/kg/injection, schedule: Q04DX002 (ip), vehicle: saline 110 % of control and 112 % of control | [5] 96 % of control | dose: 400.0 mg/kg/injection, schedule: Q04DX002 (ip), vehicle: saline 94 % of control

CCCCC(CCCC)CCCC
inactive: dose: 100.0 mg/kg/injection, schedule: Q04DX002 (ip), vehicle: saline with Tween-80 97 % of control | dose: 200.0 mg/kg/injection, schedule: Q04DX002 (ip), vehicle: saline with Tween-80 106 % of control | dose: 400.0 mg/kg/injection, schedule: Q04DX002 (ip), vehicle: saline with Tween-80 103 % of control

O=C(CNC(=O)OCc1ccccc1)NC(CO)C(=O)OCc1ccccc1 (stereo not drawn) (Cbz-Gly-[ξS]-OBn)
inactive: [2] 101 % of control | [4] 101 % of control | [6] 105 % of control

CCOC(=O)CC1=NCCc2cc(OC)c(OC)cc21
inactive: dose: 25.0 mg/kg/injection, schedule: Q04DX002 (ip), vehicle: Klucel (hydroxypropylcellulose) (HPC) 102 % of control | dose: 50.0 mg/kg/injection, schedule: Q04DX002 (ip), vehicle: Klucel (hydroxypropylcellulose) (HPC) 99 % of control | [9] 96 % of control

O=NN(CCCl)C(=O)N1CCN(C(=O)N(CCCl)N=O)CC1
inactive: dose: 12.5 mg/kg/injection, schedule: Q01DX001 (ip), vehicle: carboxymethylcellulose (CMC) 112 % of control | dose: 25.0 mg/kg/injection, schedule: Q01DX001 (ip), vehicle: carboxymethylcellulose (CMC) 116 % of control | [10] 95 % of control | dose: 300.0 mg/kg/injection, schedule: Q01DX001 (ip), vehicle: carboxymethylcellulose (CMC) 90 % of control | dose: 400.0 mg/kg/injection, schedule: Q01DX001 (ip), vehicle: carboxymethylcellulose (CMC) 87 % of control

CN(C)S(=O)(=O)N(C)C
inactive: dose: 100.0 mg/kg/injection, schedule: Q01DX001 (ip), vehicle: Klucel (hydroxypropylcellulose) (HPC) 96 % of control | dose: 200.0 mg/kg/injection, schedule: Q01DX001 (ip), vehicle: Klucel (hydroxypropylcellulose) (HPC) 102 % of control | dose: 400.0 mg/kg/injection, schedule: Q01DX001 (ip), vehicle: Klucel (hydroxypropylcellulose) (HPC) 102 % of control

CC(CC(=O)c1ccc(F)cc1)N1CCCCC1 (stereo not given)
inactive: dose: 100.0 mg/kg/injection, schedule: Q01DX001 (ip), vehicle: carboxymethylcellulose (CMC) 95 % of control | [10] 98 % of control

COc1cccc(C(=O)C=C(C(F)(F)F)C(F)(F)F)c1
inactive: dose: 25.0 mg/kg/injection, schedule: Q04DX003 (ip), vehicle: saline with Tween-80 95 % of control | dose: 50.0 mg/kg/injection, schedule: Q04DX003 (ip), vehicle: saline with Tween-80 97 % of control | dose: 100.0 mg/kg/injection, schedule: Q04DX003 (ip), vehicle: saline with Tween-80 94 % of control

COB(C1CCCCC1)C1CCCCC1
inactive: [2] 91 % of control | [4] 98 % of control | [6] 100 % of control

CNc1n[n+](-c2ccccc2)no1
inactive: dose: 25.0 mg/kg/injection, schedule: Q01DX009 (ip), vehicle: saline 93 % of control | [11] 111 % of control | dose: 50.0 mg/kg/injection, schedule: Q01DX009 (ip), vehicle: saline 109 % of control | [12] 104 % of control | [13] 97 % of control and 101 % of control

Nc1ccc(Cl)cc1-c1ccccc1
inactive: dose: 55.0 mg/kg/injection, schedule: Q01DX Z (ip), vehicle: saline 105 % of control | dose: 125.0 mg/kg/injection, schedule: Q01DX Z (ip), vehicle: saline 104 % of control

CCCCSc1ccc2c(cc1=O)C(N)CCc1cc(OC)c(OC)c(OC)c1-2 (stereo not given)
inactive: dose: 12.5 mg/kg/injection, schedule: Q04DX002 (ip), vehicle: saline 104 % of control | [7] 88 % of control | [8] 95 % of control

N#C/C(=N\N=Nc1ccccc1)c1ccccc1
inactive: dose: 1.5 mg/kg/injection, schedule: Q01DX009 (ip), vehicle: DMSO 90 % of control | dose: 6.0 mg/kg/injection, schedule: Q01DX009 (ip), vehicle: DMSO 92 % of control | dose: 12.5 mg/kg/injection, schedule: Q01DX009 (ip), vehicle: DMSO 98 % of control | dose: 12.5 mg/kg/injection, schedule: Q04DX003 (ip), vehicle: DMSO 98 % of control | dose: 25.0 mg/kg/injection, schedule: Q04DX003 (ip), vehicle: DMSO 98 % of control | dose: 50.0 mg/kg/injection, schedule: Q04DX003 (ip), vehicle: DMSO 102 % of control

COc1ccc(/C(C#N)=C/c2ccncc2)cc1OC
inactive: [14] 105 % of control | [15] 94 % of control | [16] 97 % of control

C=CCc1ccc(C)c(C)c1O
inactive: dose: 100.0 mg/kg/injection, schedule: Q01DX009 (sc), vehicle: olive oil, sesame oil, peanut oil 101 % of control | dose: 100.0 mg/kg/injection, schedule: Q04DX003 (sc), vehicle: olive oil, sesame oil, peanut oil 99 % of control | dose: 200.0 mg/kg/injection, schedule: Q01DX009 (sc), vehicle: olive oil, sesame oil, peanut oil 101 % of control | dose: 200.0 mg/kg/injection, schedule: Q04DX003 (sc), vehicle: olive oil, sesame oil, peanut oil 97 % of control | dose: 400.0 mg/kg/injection, schedule: Q01DX009 (sc), vehicle: olive oil, sesame oil, peanut oil 101 % of control | dose: 400.0 mg/kg/injection, schedule: Q04DX003 (sc), vehicle: olive oil, sesame oil, peanut oil 91 % of control

Oc1ccccc1C1SCSCS1
inactive: [2] 97 % of control | [4] 98 % of control | [6] 103 % of control

CCCCCCCCCCC1CCC(CCCCCCCCCC)CC1 (stereo not given)
inactive: [14] 106 % of control | [15] 107 % of control | [16] 91 % of control

c1ccc([B-](c2ccccc2)([C+]2CCCCC2)N2CCCCC2)cc1
inactive: dose: 75.0 mg/kg/injection, schedule: Q01DX001 (ip), vehicle: carboxymethylcellulose (CMC) 104 % of control | dose: 150.0 mg/kg/injection, schedule: Q01DX001 (ip), vehicle: carboxymethylcellulose (CMC) 100 % of control

NNC(=O)Cc1ccc(Cl)c2ccccc12
inactive: [2] 104 % of control | [4] 91 % of control

CCOC(COc1ccccc1)c1ccccc1 (stereo not given)
inactive: [1] 106 % of control | [3] 113 % of control | [5] 106 % of control

N=C(N)SCc1csc(N)n1
inactive: [11] 119 % of control | [12] 111 % of control | dose: 100.0 mg/kg/injection, schedule: Q01DX009 (ip), vehicle: saline 112 % of control | [13] 100 % of control and 117 % of control | dose: 200.0 mg/kg/injection, schedule: Q01DX009 (ip), vehicle: saline 96 % of control

COc1ccc(C(=O)OCc2ccccc2CN2CCOCC2)cc1
inactive: [9] 95 % of control | dose: 200.0 mg/kg/injection, schedule: Q04DX002 (ip), vehicle: Klucel (hydroxypropylcellulose) (HPC) 95 % of control | dose: 400.0 mg/kg/injection, schedule: Q04DX002 (ip), vehicle: Klucel (hydroxypropylcellulose) (HPC) 95 % of control

CCOC(=O)c1ccc(NC(=O)Oc2cc(C)ccc2C)cc1
inactive: [1] 93 % of control | [3] 92 % of control | [5] 90 % of control
